Data on eleven compounds can be found in ChEMBL document CHEMBL1152844, “Synthesis and anti-HIV studies of 2- and 3-adamantyl-substituted thiazolidin-4-ones” (Eur J Med Chem, 2009).

Active and inactive are the calls of the source. The rule behind the calls is not given here. A value given as a limit tells only on which side of the number the result lay.

The test system of data set [1] is Influenza A virus. The data set is described as follows: Antiviral activity against Influenza virus type A H1N1 infected in MDCK cells. It is filed as functional, organism-based.
The subject of the next data set is Vaccinia virus. The data set is described as follows: Antiviral activity against Vaccinia virus infected in HEL cells. It is filed as functional, organism-based. Particulars: Orthopoxvirus vaccinia.
In data set [2] the test system is Coxsackievirus B4. The experiment in a line: Antiviral activity against Coxsackievirus B4 infected in human HeLa cells. It is filed as functional, organism-based.
The test system of another data set is Human alphaherpesvirus 1. The data set is described as follows: Antiviral activity against Herpes simplex virus type 1 infected in HEL cells. Format: functional, organism-based.
A short description of data set [3]: Selectivity index, ratio of CC50 for human CEM cells to EC50 for HIV1 3B. It is filed as toxicity, cell-based, CCRF-CEM. Particulars: read-out: Ratio CC50/EC50.
Data set [4] relates to Mammalian orthoreovirus 1. The data set is described as follows: Antiviral activity against Reovirus 1 infected in african green monkey Vero cells. It is filed as functional, organism-based.
For data set [5], the system named is Coxsackievirus B4. The data set is described as follows: Antiviral activity against Coxsackievirus B4 infected in african green monkey Vero cells. It is filed as functional, organism-based.
Another data set concerns Human respirovirus 3. The data set is described as follows: Antiviral activity against Parainfluenza virus type 3 infected in african green monkey Vero cells. Format: functional, organism-based.
Data set [6] relates to Respiratory syncytial virus. The experiment in a line: Antiviral activity against Respiratory syncytial virus infected in human HeLa cells. It is filed as functional, organism-based.
A further data set has as its system Sindbis virus. The experiment in a line: Antiviral activity against Sindbis virus infected in african green monkey Vero cells. Format: functional, organism-based.
The subject of another data set is Feline coronavirus. The experiment in a line: Antiviral activity against Feline coronavirus infected in crandel feline kidney cells. It is filed as functional, organism-based.
Data set [7] concerns Vesicular stomatitis virus. The experiment in a line: Antiviral activity against Vesicular stomatitis virus infected in human HeLa cells. Format: functional, organism-based.
For the next data set, the system named is Punta Toro virus. The data set is described as follows: Antiviral activity against Punta Toro virus infected in african green monkey Vero cells. It is filed as functional, organism-based.
In data set [8] the test system is Human immunodeficiency virus 1. The experiment in a line: Antiviral activity against HIV1 3B infected in human CEM cells assessed as inhibition of virus-induced cytopathicity after 4 days. Format: functional, organism-based. Particulars: Human immunodeficiency virus 1, 3B, CCRF-CEM, 96 h.
Another data set relates to Influenza B virus. The data set is described as follows: Antiviral activity against Influenza virus type B infected in MDCK cells. Format: functional, organism-based.
The subject of data set [9] is Vesicular stomatitis virus. The experiment in a line: Antiviral activity against Vesicular stomatitis virus infected in HEL cells. It is filed as functional, organism-based.
The test system of data set [10] is Human immunodeficiency virus 2. The data set is described as follows: Antiviral activity against HIV2 ROD infected in human CEM cells assessed as inhibition of virus-induced cytopathicity after 4 days. It is filed as functional, organism-based. Particulars: Human immunodeficiency virus 2, ROD, CCRF-CEM, 96 h.
The test system of data set [11] is Influenza A virus. The data set is described as follows: Antiviral activity against Influenza virus type A H3N2 infected in MDCK cells. It is filed as functional, organism-based.
For a further data set, the system named is CCRF-CEM. The experiment in a line: Cytotoxicity against HIV-infected human CEM cells. Conditions: ccrf-cem. It is filed as cell-based.
In the next data set the test system is Human alphaherpesvirus 2. The experiment in a line: Antiviral activity against Herpes simplex virus type 2 infected in HEL cells. Format: functional, organism-based.

Broadly, the EC50 is the concentration at which the effect is half-maximal. The CC50 is the concentration giving 50% cytotoxicity. Consider `Cc1cc(C)nc(N2C(=O)CSC2CC23CC4CC(CC(C4)C2)C3)c1` (centres undefined), for which the outcome (with Influenza A virus [1]; in the data set on Vaccinia virus; in the data set on Coxsackievirus B4 [2]; in the data set with Human alphaherpesvirus 1; in data set [4]; with Coxsackievirus B4 [5]) was inactive. Also, the result (in the data set on Human respirovirus 3; in data set [6]; with Sindbis virus; in the data set on Feline coronavirus; in data set [7]; with Punta Toro virus) was inactive. The outcome (in the data set with Influenza B virus; in data set [9]; with Influenza A virus [11]; with Human alphaherpesvirus 2) was inactive. In addition, the selectivity ratio in data set [3] is < 2. In addition, the concentration giving a half-maximal response (EC50) in [8] is > 54 µM; in [10], ≥ 54 µM. The compound also had a CC50 with CCRF-CEM of 115 µM.
With `Cc1ccnc(N2C(=O)CSC2CC23CC4CC(CC(C4)C2)C3)c1` (centres undefined), the outcome (in the data set on Influenza A virus [1]; in the data set with Vaccinia virus; in the data set on Coxsackievirus B4 [2]; with Human alphaherpesvirus 1; in data set [4]; with Coxsackievirus B4 [5]) was inactive. Besides, the result (in the data set with Human respirovirus 3; in data set [6]; with Sindbis virus; with Feline coronavirus; in data set [7]; with Punta Toro virus) was inactive. The result (in the data set on Influenza B virus; in data set [9]; in the data set with Influenza A virus [11]; in the data set on Human alphaherpesvirus 2) was inactive. For the same compound, the selectivity ratio in data set [3] was found to be 1.6. In addition, the EC50 in [8] came out at 18.1 µM; in data set [10], 21.9 µM. In addition, in the data set with CCRF-CEM, the CC50 came to 29.3 µM.
For `Cc1ccnc(N2C(=O)CSC2C23CC4CC(CC(C4)C2)C3)n1` (centres undefined), the result (with Influenza A virus [1]; with Vaccinia virus; in the data set on Coxsackievirus B4 [2]; in the data set with Human alphaherpesvirus 1; in data set [4]; with Coxsackievirus B4 [5]) was inactive. The outcome (in the data set with Human respirovirus 3; in data set [6]; in the data set on Sindbis virus; in the data set on Feline coronavirus; in [7]; with Punta Toro virus) was inactive. Besides, the outcome (with Influenza B virus; in data set [9]; in the data set on Influenza A virus [11]; in the data set with Human alphaherpesvirus 2) was inactive. Besides, in [3], the selectivity ratio was determined as 30. Further, the half-maximal effective concentration (EC50) in data set [8] was 4.5 µM; in [10], > 60.7 µM. The compound also showed a CC50 in the data set on CCRF-CEM of 136 µM.
Turning to `O=C1CSC(c2c(F)cccc2Cl)N1CC12CC3CC(CC(C3)C1)C2` (centres undefined), the result (with Influenza A virus [1]; with Vaccinia virus; in the data set with Coxsackievirus B4 [2]; in the data set on Human alphaherpesvirus 1; in [4]; with Coxsackievirus B4 [5]) was inactive. Also, the result (in the data set on Human respirovirus 3; in [6]; with Sindbis virus; with Feline coronavirus; in data set [7]; in the data set with Punta Toro virus) was inactive. The outcome (with Influenza B virus; in data set [9]; in the data set on Influenza A virus [11]; with Human alphaherpesvirus 2) was inactive. For the same compound, the selectivity ratio in [3] was determined as 10. For the same compound, the EC50 is 2 µM in data set [8] and ≥ 10.5 µM in [10]. Further, the CC50 in the data set on CCRF-CEM came out at 20.2 µM.
On to `COc1cc(C2SCC(=O)N2CC23CC4CC(CC(C4)C2)C3)cc(OC)c1OC` (centres undefined), for which the outcome (in the data set with Influenza A virus [1]; in the data set on Vaccinia virus; with Coxsackievirus B4 [2]; with Human alphaherpesvirus 1; in data set [4]; with Coxsackievirus B4 [5]) was inactive. Besides, the result (with Human respirovirus 3; in [6]; in the data set with Sindbis virus; in the data set with Feline coronavirus; in [7]; in the data set on Punta Toro virus) was inactive. Besides, the result (in the data set on Influenza B virus; in data set [9]; with Influenza A virus [11]; in the data set on Human alphaherpesvirus 2) was inactive. For the same compound, the selectivity ratio in data set [3] is < 1.6. The EC50 in [8] and in data set [10] was ≥ 10.9 µM each time. In addition, the CC50 in the data set with CCRF-CEM worked out at 18 µM.
As for `Cc1ccnc(N2C(=O)CSC2CC23CC4CC(CC(C4)C2)C3)n1` (centres undefined), the outcome (in the data set on Influenza A virus [1]; with Vaccinia virus; with Coxsackievirus B4 [2]; in the data set on Human alphaherpesvirus 1; in data set [4]; with Coxsackievirus B4 [5]) was inactive. Also, the result (in the data set with Human respirovirus 3; in [6]; with Sindbis virus; with Feline coronavirus; in [7]; in the data set with Punta Toro virus) was inactive. In addition, the outcome (with Influenza B virus; in data set [9]; in the data set with Influenza A virus [11]; with Human alphaherpesvirus 2) was inactive. Further, in data set [3], the selectivity ratio was < 2.3. The concentration for a half-maximal effect (EC50) in data set [8] is ≥ 11.6 µM; in [10], 23.5 µM. The same compound returned a half-maximal cytotoxic concentration (CC50) in the data set on CCRF-CEM of 27.3 µM.
Turning to `Cc1ccnc2c1NC(=O)c1cccnc1N2C1CC1` [NEVIRAPINE], in data set [10], the EC50 was > 50 µM. In addition, the cytotoxic concentration (CC50) in the data set on CCRF-CEM is > 50 µM.
Take `CN(C)CCN1C(=O)CSC1CC12CC3CC(CC(C3)C1)C2` (centres undefined): the outcome (in the data set with Influenza A virus [1]; with Vaccinia virus; in the data set on Coxsackievirus B4 [2]; in the data set on Human alphaherpesvirus 1; in [4]; in the data set with Coxsackievirus B4 [5]) was inactive. Moreover, the outcome (in the data set on Human respirovirus 3; in data set [6]; in the data set on Sindbis virus; with Feline coronavirus; in data set [7]; in the data set on Punta Toro virus) was inactive. The outcome (with Influenza B virus; in data set [9]; in the data set with Influenza A virus [11]; with Human alphaherpesvirus 2) was inactive. Moreover, the selectivity ratio in [3] was < 1.4. Moreover, the EC50 is 53 µM in data set [8] and ≥ 62 µM in [10]. For the same compound, in the data set with CCRF-CEM, the CC50 was 77 µM.
In the case of `Cc1cccc(N2C(=O)CSC2CC23CC4CC(CC(C4)C2)C3)n1` (centres undefined), the result (in the data set on Influenza A virus [1]; with Vaccinia virus; in the data set on Coxsackievirus B4 [2]; in the data set with Human alphaherpesvirus 1; in data set [4]; in the data set with Coxsackievirus B4 [5]) was inactive. Also, the result (with Human respirovirus 3; in [6]; in the data set with Sindbis virus; in the data set with Feline coronavirus; in data set [7]; with Punta Toro virus) was inactive. Moreover, the result (in the data set on Influenza B virus; in [9]; in the data set on Influenza A virus [11]; with Human alphaherpesvirus 2) was inactive. Moreover, in data set [3], the selectivity ratio was 1.9. Moreover, the EC50 in [8] was determined as 17.8 µM; in data set [10], 21.9 µM. The CC50 in the data set with CCRF-CEM amounted to 35 µM.
As to `O=C1CSC(CC23CC4CC(CC(C4)C2)C3)N1CCN1CCCC1` (centres undefined), the result (in the data set with Influenza A virus [1]; with Vaccinia virus; in the data set with Coxsackievirus B4 [2]; with Human alphaherpesvirus 1; in data set [4]; in the data set on Coxsackievirus B4 [5]) was inactive. The outcome (in the data set with Human respirovirus 3; in [6]; in the data set with Sindbis virus; in the data set on Feline coronavirus; in [7]; in the data set on Punta Toro virus) was inactive. Besides, the result (with Influenza B virus; in data set [9]; in the data set on Influenza A virus [11]; with Human alphaherpesvirus 2) was inactive. Further, in [3], the selectivity ratio worked out at 1.6. The figures for the EC50 in data set [8] and in data set [10] were 48.7 µM and ≥ 57 µM, respectively. Further, in the data set on CCRF-CEM, half-maximal cytotoxicity (CC50) was put at 77 µM.
On to `O=c1[nH]cnc2c1ncn2[C@H]1CC[C@@H](CO)O1` [DIDANOSINE], for which, in data set [3], the selectivity ratio is > 54. In addition, the CC50 with CCRF-CEM is > 250 µM.
